Laboratory results published in patent publication US20250051851A1, “NOVEL BIOMARKER FOR DETECTION OF CANCER METASTASIS” (INDUSTRY-ACADEMIC COOPERATION FOUNDATION, YONSEI UNIVERSITY, priority 2021, published 2025).

Tested on: IKZF1 and IKZF3
Assay: In vivo experiment using IKZF inhibitor: counting circulating tumor cells in melanoma mouse model
Details: melanoma mouse model (B16F10 cells injected into paw pad); injection of the drug; FIG. 12

SMILES: Nc1cccc2c1C(=O)N(C1CCC(=O)NC1=O)C2=O (stereo not shown) [pomalidomide]
- number of circulating tumor cells: decreased
